Here are results for 5 molecules from patent publication US20250382589A1, “SYNTHETIC OPERONS FOR THE PRODUCTION OF 2-MERCAPTOETHANE SULFONATE (COENZYME M) AND METHODS OF USING THE SAME” (priority 2024, published 2025).

Several values for one entry are separate records, joined by “and”; a condition that tells them apart may be missing. Equal values may be shown once.

The subject of series [1] is E. coli K-12 wild-type and ΔtauD. The series is classed as cell-based, Escherichia coli. The following applies: for growth when plated with 2 mM: 2 mM on plates. The protocol: Uptake of exogenous CoM by E. coli. To determine whether E. coli could catabolize CoM, wild-type (NB506) and ΔtauD (NB510) E. coli K-12 strains were tested for the ability to use CoM, cysteine, and taurine as sole sulfur source on M9 minimal medium lacking sulfur (—S) agar plates after washing to reduce nutrient carryover. E. coli strains were streaked on LB agar (1.5%) plates and used to inoculate 3 mL defined medium (Table 7) then incubated at 35° C. (16 hours, 215 rpm). Cells from 100 μL of each culture was harvested by centrifugation at 5,000×g for 3 minutes. Cells were washed three times and resuspended in 1 mL phosphate buffered saline (137 mM NaCl, 2.7 mM KCl, 10 mM Na2HPO4, 1.8 mM KH2PO4). […] Washed cultures were streaked on each agar plate and incubated at 35° C. for 63 hours before photographing.
We assessed which catabolic pathways could be involved in a hypothetical digestion of CoM by E. coli. […] If this was the case, then the antioxidant effect of CoM may be stronger in the ΔtauD strain when compared to the wild-type strain.

The subject of series [2] is E. coli K-12 ΔtauD. Put plainly: Acute oxidative stress assay (H2O2 disks, zone of clearing). The series is classed as cell-based, Escherichia coli. The note with it: 0.1 mM taurine. The protocol:
Acute oxidative stress assay. E. coli K-12 ΔtauD (NB510) was transformed using pET24a (vector-only control, VOC) or pCH003 (com^syn) to generate strains NB515 and NB525, respectively, and grown on LB agar (1.5%) plates containing 50 μg/mL kanamycin. Cultures were grown in defined medium with kanamycin at 37° C. (10 hours, 215 rpm) then 6 mL defined medium was inoculated (1:100). This culture was incubated until OD600=0.4-0.5 then induced using 0.1 mM IPTG. After another hour of incubation, the cultures were then split into two aliquots of 2.6 mL each, given either 0.1 mM taurine or H2O, and incubated another hour. LB plates containing 0.1 mM IPTG and 0.1 mM taurine were prepared and warmed for 15 minutes at 37° C. Cultures were normalized to 0.1 OD600 and 1 mL of culture was spread on each plate. […] Zones of clearing were measured using the ImageJ program.(38) […]
As CoM is a thiol with proposed antioxidant qualities, we tested the ability of operon 3 to protect E. coli from oxidative stress. ΔtauD K-12 E. coli were made kanamycin sensitive through the use of the pCP20 plasmid and given a T7 Polymerase using a λDE3 Lysogenization Kit (Novagen). […] Optical density (OD) measurements at 600 nm were taken every 6 minutes for 17.5 hours using a Tecan Microplate Reader. […]

The subject of series [3] is E. coli K-12 ΔtauD. Put plainly: Chronic oxidative stress assay (cumene hydroperoxide, 96-well growth). The series is classed as cell-based, Escherichia coli. The note with it: taurine supplied. The protocol: Chronic oxidative stress assay. Cultures were prepared according to the procedure outlined in the Acute Stress Assay method above. Cultures were normalized to 0.1 OD600 and 4.5 mL defined medium was inoculated (1:10) and gently mixed. Cultures (148 μL) were dispensed into each well of a sterile 96-well plate. 2 μL of either H2O or […] CuHO2 was added to designated wells.
Observed increases in the doubling times of com^syn expressing cells are expected as these cultures are being tasked with recombinantly producing enzymes which the vector-only control carrying cells are not (FIG. 8d).
As CoM is a thiol with proposed antioxidant qualities, we tested the ability of operon 3 to protect E. coli from oxidative stress. ΔtauD K-12 E. coli were made kanamycin sensitive through the use of the pCP20 plasmid and given a T7 Polymerase using a λDE3 Lysogenization Kit (Novagen). […] Expression of operon 3 was induced for 2 hours using 100 μM IPTG and cultures were incubated with 100 μM taurine for 70 minutes before being used as inoculum in a 96 well plate with cumene hydroperoxide. Optical density (OD) measurements at 600 nm were taken every 6 minutes for 17.5 hours using a Tecan Microplate Reader. A Kirby-Bauer assay was developed which examined the zone of clearing around sterile absorption disks dosed with 5 μL 2.45M hydrogen peroxide.

Series [4] deals with E. coli K-12 ΔtauD. Put plainly: Oxidative stress assay after preincubation with CoM (cumene hydroperoxide).
In a further series the test system is wild-type E. coli K12. Described as above. Type of series: cell-based, Escherichia coli. From the text:
After having established that E. coli can use CoM as a sulfur source when grown on sulfur-free media, we tested if exogenously supplied CoM could mitigate oxidative stress. […] Protection from oxidative stress remained consistent as the concentration of CuHO2 increased (FIG. 19b). Exponential and logarithmic regression analyses were applied to the lag times of −CoM and +CoM cultures under CuHO2 stress (FIG. 33). These regression curves and their associated equations calculate that the lag time for +CoM E. coli subjected to 65 μM CuHO2 is equivalent to the lag time of −CoM E. coli subjected to ˜50 μM CuHO2.

The test system of series [5] is CoM synthesis from pyruvate and taurine. Put plainly: CoM biosynthesis assay in E. coli lysate. The series is classed as biochemical, Escherichia coli. The procedure: CoM biosynthesis assay. To improve expression of comF, pCH003 was transformed into BL21 E. coli along with pDB1282, graciously provided by Squire J. Booker (Penn State University).(36) This strain was grown in 25 mL defined medium overnight at 37° C. (250 rpm); this was used to inoculate 975 mL defined medium and continued growth at 37° C. (250 rpm). At OD600=0.3 of the culture was supplemented with 2% L-arabinose, 2 mL 1 M cysteine HCl (2 mM), […] iron (II) sulfate (1 mM), and […] ferric ammonium sulfate (1 mM) then returned to incubation. After 1 hour the culture was induced using 0.1 mM IPTG, incubated for 3 hours, pelleted at 8,000×g (10 minutes, 4° C.), and stored at −80° C. until analysis. A portion of the cell pellet was lysed as described above and the presence of ComF and Tpa was confirmed by immunoblotting using a 8-16% polyacrylamide gel with the initial electrophoresis changed to 50 V (25 minutes) followed by 100 V (105 minutes) and transferred using constant 0.11 A (50 minutes). […] Samples were aspirated into a luer slip tip syringe and filtered through a 0.2 μm, 13 mm diameter polyethersulfone (PES) membrane into fresh amber autosampler vials then stored at 4° C. in the dark until analyzed by high-performance liquid chromatography (HPLC) using an UltiMate 3000 (Thermo Scientific, Waltham, MA). […]

Consider `N[C@@H](CS)C(=O)O` [Cys, cysteine], for which, in series [1], the “growth when plated with 2 mM” value is “no growth defects”.

For the molecule `NCCS(=O)(=O)O` [taurine], the “growth when plated with 2 mM” value in series [1] was “Inhibitory growth”. The “growth with the substance as sulfur source” value in series [1] (M9 (—S) agar plates, 100 μM) was “grew poorly”. The “zone of clearing of Empty Vector strain” value with E. coli K-12 ΔtauD [2] is recorded as “increase in the average zone of clearing size”. Moreover, the “lag time of vector-only control cells” value is “lag time increased” in the series on E. coli K-12 ΔtauD [3] and “increases” in the series with E. coli K-12 ΔtauD [3] (listed as SC).

Regarding `O=S(=O)(O)CCS` [CoM, 2-mercaptoethanesulfonate], the “growth when plated with 2 mM” value in series [1] is “no growth defects”. For the same molecule, the lag time in the series with E. coli K-12 ΔtauD [4] (+CoM, 65 μM CuHO2) was determined as 4.7 h; in the series on E. coli K-12 ΔtauD [4] (preincubated with CoM, 75 μM cumene) it was 3.5 h; in the series on wild-type E. coli K12 (+CoM, 65 μM CuHO2) it was 6.0 h; with wild-type E. coli K12 (preincubated with 100 μM CoM (+CoM), 75 μM cumene negative control, time to OD600=0.1), 3.0 h. The CuHO2 mitigated in the series with E. coli K-12 ΔtauD [4] (comparison of lag times) was around 20 µM; in the series on wild-type E. coli K12 (from regression of lag times), around 15 µM. For the same molecule, in the series with wild-type E. coli K12 (+CoM at 65 μM CuHO2, regression), the “CuHO2 concentration giving the same lag time in −CoM culture” value is ~50 µM and 49.73 µM. Besides, the “lag time predicted by exponential regression” value in the series with wild-type E. coli K12 (+CoM, 65 μM CuHO2) is recorded as 6.313 h.

B1: MA3299: coenzyme M synthase (ComF) of Methanosarcina acetivorans, SEQ ID NO: 1 (protein)
chain: MNGALDNTEKPRTIQEIQVKIDAGEAVVLTAEEIGAKVRAGGEIRLEDIDVVTTATRGIMSGTYAVFSFKVSEPDSFVKASKVLLNGVPAIVGPCPNERLGVLDLIVLGTAHSETDSRYGGGHLFRDMVEGKSITVDVTTSVGDFFSVETRLSEMPFARLYATRHAFKNYRAFVNPGKESIKTIFHALPFEGEFRELTFCGCGELNPIQNDPKLETIGIGTRVLINGAEGFVTGQGTRSAPDNPNLTGFADLHDMTPEYMGGFVTSAGPEIVNTWAVPIPVLSREMLENILQLDSQIPLKLVDLAGRLPLCEITYGDVWDNTDLSVKYEPEKCIDCKICCVAEACPMGAVSKGENGAVHNPELCFNCGLCISRCKGEAFSAKLGTVSCAVGGCFRDIKVTLRQSDRARAVKAAEELKAQVLSGKFRLKEPVEKISWRE
modifications: Methanosarcina acetivorans
On to B1, for which the “reduction of enzymatic activity” value in series [5] (lysate removed from the anaerobic chamber for centrifugation) is around 60%.

B2: Q9APM5: taurine-pyruvate aminotransferase from Bilophila wadsworthia, SEQ ID NO: 3 (protein, listed as Bilophila wadsworthia)
chain: MTYDKAELVALDKKYVWHHLTQHKNFEPAIYVKGEGMRITDIDGKTYLDAVSGGVWTVNVGYGRKEIVDAVAKQMMEMCYFANGIGNVPTIKFSEKLISKMPGMSRVYLSNSGSEANEKAFKIVRQIGQLKHGGKKTGILYRARDYHGTTIGTLSACGQFERKVQYGPFAPGFYEFPDCDVYRSKFGDCADLGVKMAKQLEEVILTVGPDELGAVIVEPMTAGGGILVPPAGYYETIREICDKYELLLIIDEVVCGLGRTGKWFGYQHFNVQPDIVTMAKGVASGYAPISCTVTTEKVFQDFVNDPADTDAYFRDISTFGGCTSGPAAALANIEIIERENLLENCTKMGDRLLEGLKGLMAKHPIIGDVRGKGLFAGIEIVKDRATKEPIAEAVANAMVGAAKQAGVLIGKTSRSFREFNNTLTLCPALIATEADIDEIVAGIDKAFTTVEQKFGL
Turning to B2, the catalysis entry in series [5] (enzyme alone) is recorded as “Catalysis was not observed”.
